Test results as given in US4100346A, “Certain 7(o-amino-methyl- or methylaminomethylphenyl- or cyclohexadienyl- or thienylacetamide)-3[1-carboxymethyl-(or ethyl- or propyl-)-tetrazol-5-ylthiomethyl]-3-cephem-4-carboxylic acids” (Bristol-Myers Company, priority 1976, dated 1978).
Converted amounts (≈) assume the structure as drawn. Where two headings read alike, the source gives them in different places.

Key:
Serratia marcescens = assay: Growth inhibitory activity, antibiotic dilution technique; conditions: read-out: Minimum inhibitory concentration
Proteus mirabilis [1] = assay: Effect of inoculum size on susceptibility of Enterobacteriaceae
Pasteurella multocida = assay: Growth inhibitory activity, antibiotic dilution technique; conditions: read-out: Minimum inhibitory concentration
[2] = system: Enterobacter sp. and Citrobacter sp.; assay: Growth inhibitory activity, antibiotic dilution technique (text summary); conditions: compared with cephalothin, cephaloridine, cefazolin
Alcaligenes sp. = assay: Growth inhibitory activity, antibiotic dilution technique
[3] = system: Mycobacterium tuberculosis; type: cell-based
Erwinia sp. = assay: Growth inhibitory activity, antibiotic dilution technique; conditions: read-out: Minimum inhibitory concentration
[4] = system: Escherichia coli, Klebsiella pneumoniae, Proteus mirabilis, Proteus vulgaris, Salmonella sp., Shigella sp. and Neisseria meningitidis; assay: Growth inhibitory activity, antibiotic dilution technique (text summary); type: cell-based; conditions: growth inhibitory activity vs cephalothin, cephaloridine, cefazolin
Pr. mirabilis = assay: M.I.C. by Tube Dilution in Nutrient Broth (Examples 1 and 2); type: cell-based; conditions: Proteus mirabilis; Pr. mirabilis A9900 (10^-4)
Excerpt: (§1) | **Dilution of overnight broth culture

E. coli = assay: as above; type: cell-based; conditions: Escherichia coli, E. coli A9675 (10^-4)
Excerpt: as §1

S. aureus = assay: as above; type: cell-based; conditions: Staphylococcus aureus
Excerpt: as §1

Pr. morganii = assay: as above; type: cell-based; conditions: Morganella morganii; Pr. morganii A15153 (10^-4)
Excerpt: as §1

Proteus vulgaris [5] = assay: Minimum growth inhibitory and bactericidal concentrations for Enterobacteriaceae; type: cell-based; conditions: inoculum 10^4 cells; for MIC: read-out: MIC, Minimum growth inhibitory concentration; for MBC: read-out: MBC, minimum bactericidal concentration
Excerpt: (§2) Miscellaneous. Methods for determining bactericidal activity and susceptibility to cell-free β-lactamase were those previously used; Leitner et al., BL-S640, A Cephalosporin With a Broad Spectrum of Antibacterial Activity: Properties in vitro, Antimicrob. Agents Chemother. 7:298-305 (1975).
(§3) *MIC, Minimum growth inhibitory concentration; MBC, minimum bactericidal
(§4) concentration; expressed as micrograms per milliliter. The inoculum was […]

Klebsiella pneumoniae = assay: as above; type: cell-based; conditions: for MBC: read-out: MBC, minimum bactericidal concentration; for MIC: read-out: MIC, Minimum growth inhibitory concentration
Excerpt: as §2, §3, §4

Enterobacter cloacae = assay: as above; type: cell-based; conditions: for MBC: read-out: MBC, minimum bactericidal concentration; for MIC: read-out: MIC, Minimum growth inhibitory concentration
Excerpt: as §2, §3, §4

Proteus mirabilis [6] = assay: as above; type: cell-based; conditions: for MBC: read-out: MBC, minimum bactericidal concentration; for MIC: read-out: MIC, Minimum growth inhibitory concentration
Excerpt: as §2, §3, §4

Enterobacter aerogenes = assay: as above; type: cell-based; conditions: Klebsiella aerogenes, inoculum 10^4 cells; for MBC: read-out: MBC, minimum bactericidal concentration; for MIC: read-out: MIC, Minimum growth inhibitory concentration
Excerpt: as §2, §3, §4

Proteus rettgeri = assay: as above; type: cell-based; conditions: Providencia rettgeri, inoculum 10^4 cells; for MBC: read-out: MBC, minimum bactericidal concentration; for MIC: read-out: MIC, Minimum growth inhibitory concentration
Excerpt: as §2, §3, §4

Escherichia coli = assay: as above; type: cell-based; conditions: for MBC: read-out: MBC, minimum bactericidal concentration; for MIC: read-out: MIC, Minimum growth inhibitory concentration
Excerpt: as §2, §3, §4

Proteus vulgaris [7] = assay: Effect of inoculum size on susceptibility of Enterobacteriaceae
[8] = Proteus vulgaris, Proteus vulgaris strain 2
[9] = Proteus vulgaris, Proteus vulgaris strain 4
[10] = Klebsiella pneumoniae strain 1, inoculum 10^4 cells
[11] = Klebsiella pneumoniae strain 2, inoculum 10^4 cells
[12] = Klebsiella pneumoniae strain 3, inoculum 10^4 cells
[13] = Klebsiella pneumoniae strain 4, inoculum 10^4 cells
[14] = Klebsiella pneumoniae strain 5, inoculum 10^4 cells
[15] = Klebsiella pneumoniae strain 6, inoculum 10^4 cells
[16] = Enterobacter cloacae strain 3, inoculum 10^4 cells
[17] = Enterobacter cloacae strain 4, inoculum 10^4 cells
[18] = Enterobacter cloacae strain 8, inoculum 10^4 cells
[19] = Proteus mirabilis strain 1, inoculum 10^4 cells
[20] = Proteus mirabilis strain 2, inoculum 10^4 cells
[21] = Proteus mirabilis strain 3, inoculum 10^4 cells
[22] = Proteus mirabilis strain 4, inoculum 10^4 cells
[23] = Proteus mirabilis strain 5, inoculum 10^4 cells
[24] = Enterobacter aerogenes strain 1
[25] = Enterobacter aerogenes strain 2
[26] = Enterobacter aerogenes strain 3
[27] = Escherichia coli strain 1, inoculum 10^4 cells
[28] = Escherichia coli strain 2, inoculum 10^4 cells
[29] = Escherichia coli strain 3, inoculum 10^4 cells
[30] = Escherichia coli strain 4, inoculum 10^4 cells
[31] = Escherichia coli strain 5, inoculum 10^4 cells
[32] = Escherichia coli strain 6, inoculum 10^4 cells

SMILES: NCc1ccccc1CC(=O)N[C@@H]1C(=O)N2C(C(=O)O)=C(CSc3nnnn3CC(=O)O)CS[C@H]12 [Example 1]
- MIC (Serratia marcescens): > 125 µg/mL
- MIC (Proteus mirabilis [1]; read-out: Minimum Inhibitory Concentration, Proteus mirabilis strain 1, A, Inoculum of 10^2 organisms): 0.5 µg/mL (≈ 0.962 µM)
- MIC (Proteus mirabilis [1]; read-out: Minimum Inhibitory Concentration, Proteus mirabilis strain 1, B, Inoculum of 10^6 organisms): 2 µg/mL (≈ 3.85 µM)
- MIC (Proteus mirabilis [1]; read-out: Minimum Inhibitory Concentration, Proteus mirabilis strain 2, A, Inoculum of 10^2 organisms): 0.5 µg/mL (≈ 0.962 µM)
- MIC (Proteus mirabilis [1]; read-out: Minimum Inhibitory Concentration, Proteus mirabilis strain 2, B, Inoculum of 10^6 organisms): 4 µg/mL (≈ 7.7 µM)
- MIC (Proteus mirabilis [1]; read-out: Minimum Inhibitory Concentration, Proteus mirabilis strain 3, A, Inoculum of 10^2 organisms): 0.5 µg/mL (≈ 0.962 µM)
- MIC (Proteus mirabilis [1]; read-out: Minimum Inhibitory Concentration, Proteus mirabilis strain 3, B, Inoculum of 10^6 organisms): 2 µg/mL (≈ 3.85 µM)
- MIC (Proteus mirabilis [1]; read-out: Minimum Inhibitory Concentration, Proteus mirabilis strain 4, A, Inoculum of 10^2 organisms): 0.5 µg/mL (≈ 0.962 µM)
- MIC (Proteus mirabilis [1]; read-out: Minimum Inhibitory Concentration, Proteus mirabilis strain 4, B, Inoculum of 10^6 organisms): 2 µg/mL (≈ 3.85 µM)
- MIC (Proteus mirabilis [1]; read-out: Minimum Inhibitory Concentration, Proteus mirabilis strain 5, A, Inoculum of 10^2 organisms): 0.5 µg/mL (≈ 0.962 µM)
- MIC (Proteus mirabilis [1]; read-out: Minimum Inhibitory Concentration, Proteus mirabilis strain 5, B, Inoculum of 10^6 organisms): 4 µg/mL (≈ 7.7 µM)
- MIC (Pasteurella multocida): 0.25 µg/mL (≈ 0.481 µM)
- activity against Enterobacter sp. and Citrobacter sp. [2]: alone was active
- MIC (Alcaligenes sp.; read-out: Minimum inhibitory concentration, Alcaligenes sp., 2 strains, geometric mean when applicable): 63 µg/mL (≈ 121 µM)
- MIC (Alcaligenes sp.; read-out: Minimum inhibitory concentration, Alcaligenes sp., 4 strains, geometric mean when applicable): > 125 µg/mL
- MIC (Alcaligenes sp.; read-out: Minimum inhibitory concentration, Alcaligenes sp., 5 strains, geometric mean when applicable): 2.6 µg/mL (≈ 5 µM)
- times more active than the control compounds [3]: 4 to 32
- MIC (Erwinia sp.): 0.66 µg/mL (≈ 1.27 µM)
- times more active than the reference cephalosporins [4]: 2 to 16
- MIC (Pr. mirabilis): 0.13 µg/mL (≈ 0.25 µM)
- MIC (E. coli): 16 µg/mL (≈ 30.8 µM)
- MIC (S. aureus; S. aureus BX1633 A9606 (10^-2)): 2 µg/mL (≈ 3.85 µM)
- MIC (S. aureus; S. aureus BX1633 A9606 (10^-3)): 1 µg/mL (≈ 1.92 µM)
- MIC (S. aureus; S. aureus Meth-Res A15097 (10^-3)): 4 µg/mL (≈ 7.7 µM)
- MIC (S. aureus; S. aureus Smith A9537 (10^-4)): 1 µg/mL (≈ 1.92 µM)
- MIC (S. aureus; S. aureus-50% serum A9537 (10^-4)): 4 µg/mL (≈ 7.7 µM)
- MIC (Pr. morganii): 32 µg/mL (≈ 61.6 µM)
- MIC (Proteus vulgaris [5]; Proteus vulgaris strain 1): 0.5 µg/mL (≈ 0.962 µM)
- MBC (Proteus vulgaris [5]; Proteus vulgaris, Proteus vulgaris strain 1): 1 µg/mL (≈ 1.92 µM)
- MBC (Proteus vulgaris [5]; [8]): 0.5 µg/mL (≈ 0.962 µM)
- MIC (Proteus vulgaris [5]; [8]): 0.5 µg/mL (≈ 0.962 µM)
- MBC (Proteus vulgaris [5]; [9]): 1 µg/mL (≈ 1.92 µM)
- MIC (Proteus vulgaris [5]; [9]): 0.5 µg/mL (≈ 0.962 µM)
- MBC (Klebsiella pneumoniae; [10]): 0.25 µg/mL (≈ 0.481 µM)
- MIC (Klebsiella pneumoniae; [10]): 0.25 µg/mL (≈ 0.481 µM)
- MBC (Klebsiella pneumoniae; [11]): 0.25 µg/mL (≈ 0.481 µM)
- MIC (Klebsiella pneumoniae; [11]): 0.25 µg/mL (≈ 0.481 µM)
- MBC (Klebsiella pneumoniae; [12]): 0.25 µg/mL (≈ 0.481 µM)
- MIC (Klebsiella pneumoniae; [12]): 0.25 µg/mL (≈ 0.481 µM)
- MBC (Klebsiella pneumoniae; [13]): 0.5 µg/mL (≈ 0.962 µM)
- MIC (Klebsiella pneumoniae; [13]): 0.5 µg/mL (≈ 0.962 µM)
- MBC (Klebsiella pneumoniae; [14]): 0.5 µg/mL (≈ 0.962 µM)
- MIC (Klebsiella pneumoniae; [14]): 0.5 µg/mL (≈ 0.962 µM)
- MBC (Klebsiella pneumoniae; [15]): 1 µg/mL (≈ 1.92 µM)
- MIC (Klebsiella pneumoniae; [15]): 0.5 µg/mL (≈ 0.962 µM)
- MBC (Enterobacter cloacae; [16]): 8 µg/mL (≈ 15.4 µM)
- MIC (Enterobacter cloacae; [16]): 4 µg/mL (≈ 7.7 µM)
- MBC (Enterobacter cloacae; [17]): 63 µg/mL (≈ 121 µM)
- MIC (Enterobacter cloacae; [17]): 8 µg/mL (≈ 15.4 µM)
- MBC (Enterobacter cloacae; [18]): 63 µg/mL (≈ 121 µM)
- MIC (Enterobacter cloacae; [18]): 63 µg/mL (≈ 121 µM)
- MBC (Proteus mirabilis [6]; [19]): 1 µg/mL (≈ 1.92 µM)
- MIC (Proteus mirabilis [6]; [19]): 0.5 µg/mL (≈ 0.962 µM)
- MBC (Proteus mirabilis [6]; [20]): 0.5 µg/mL (≈ 0.962 µM)
- MIC (Proteus mirabilis [6]; [20]): 0.5 µg/mL (≈ 0.962 µM)
- MBC (Proteus mirabilis [6]; [21]): 0.5 µg/mL (≈ 0.962 µM)
- MIC (Proteus mirabilis [6]; [21]): 0.5 µg/mL (≈ 0.962 µM)
- MBC (Proteus mirabilis [6]; [22]): 0.5 µg/mL (≈ 0.962 µM)
- MIC (Proteus mirabilis [6]; [22]): 0.25 µg/mL (≈ 0.481 µM)
- MBC (Proteus mirabilis [6]; [23]): 0.5 µg/mL (≈ 0.962 µM)
- MIC (Proteus mirabilis [6]; [23]): 0.5 µg/mL (≈ 0.962 µM)
- MBC (Enterobacter aerogenes; [24]): 2 µg/mL (≈ 3.85 µM)
- MIC (Enterobacter aerogenes; [24]): 2 µg/mL (≈ 3.85 µM)
- MBC (Enterobacter aerogenes; [25]): 2 µg/mL (≈ 3.85 µM)
- MIC (Enterobacter aerogenes; [25]): 2 µg/mL (≈ 3.85 µM)
- MBC (Enterobacter aerogenes; [26]): 16 µg/mL (≈ 30.8 µM)
- MIC (Enterobacter aerogenes; [26]): 8 µg/mL (≈ 15.4 µM)
- MBC (Proteus rettgeri; Proteus rettgeri strain 2): 0.13 µg/mL (≈ 0.25 µM)
- MIC (Proteus rettgeri; Proteus rettgeri strain 2): 0.063 µg/mL (≈ 0.121 µM)
- MBC (Proteus rettgeri; Proteus rettgeri strain 3): 63 µg/mL (≈ 121 µM)
- MIC (Proteus rettgeri; Proteus rettgeri strain 3): 0.25 µg/mL (≈ 0.481 µM)
- MBC (Escherichia coli; [27]): 0.5 µg/mL (≈ 0.962 µM)
- MIC (Escherichia coli; [27]): 0.5 µg/mL (≈ 0.962 µM)
- MBC (Escherichia coli; [28]): 16 µg/mL (≈ 30.8 µM)
- MIC (Escherichia coli; [28]): 16 µg/mL (≈ 30.8 µM)
- MBC (Escherichia coli; [29]): 0.5 µg/mL (≈ 0.962 µM)
- MIC (Escherichia coli; [29]): 0.25 µg/mL (≈ 0.481 µM)
- MBC (Escherichia coli; [30]): 0.5 µg/mL (≈ 0.962 µM)
- MIC (Escherichia coli; [30]): 0.5 µg/mL (≈ 0.962 µM)
- MBC (Escherichia coli; [31]): 1 µg/mL (≈ 1.92 µM)
- MIC (Escherichia coli; [31]): 1 µg/mL (≈ 1.92 µM)
- MBC (Escherichia coli; [32]): 1 µg/mL (≈ 1.92 µM)
- MIC (Escherichia coli; [32]): 1 µg/mL (≈ 1.92 µM)
- MIC (Proteus vulgaris [7]; read-out: Minimum Inhibitory Concentration, Proteus vulgaris strain 1, A, Inoculum of 10^2 organisms): 1 µg/mL (≈ 1.92 µM)
- MIC (Proteus vulgaris [7]; read-out: Minimum Inhibitory Concentration, Proteus vulgaris strain 1, B, Inoculum of 10^6 organisms): 4 µg/mL (≈ 7.7 µM)
- MIC (Proteus vulgaris [7]; read-out: Minimum Inhibitory Concentration, Proteus vulgaris strain 2, A, Inoculum of 10^2 organisms): 1 µg/mL (≈ 1.92 µM)
- MIC (Proteus vulgaris [7]; read-out: Minimum Inhibitory Concentration, Proteus vulgaris strain 2, B, Inoculum of 10^6 organisms): 8 µg/mL (≈ 15.4 µM)
- MIC (Proteus vulgaris [7]; read-out: Minimum Inhibitory Concentration, Proteus vulgaris strain 4, A, Inoculum of 10^2 organisms): 1 µg/mL (≈ 1.92 µM)
- MIC (Proteus vulgaris [7]; read-out: Minimum Inhibitory Concentration, Proteus vulgaris strain 4, B, Inoculum of 10^6 organisms): 8 µg/mL (≈ 15.4 µM)
